Data as given in PubChem BioAssay (NCI).
Values joined by “and” are separate entries in the source; they are usually repeats but may differ in a detail not shown here. Equal entries are not always repeated.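 The compound was tested at five concentrations on cells cultured in 96-well plates, with a 48-hour exposure period. The concentration for 50% growth inhibition is given as GI50. TGI denotes the concentration required for complete inhibition of growth.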

Key:
Test in all cases: NCI-60 cell line screen, 48 h
[1] = test system: CAKI-1 renal
[2] = test system: MDA-MB-231 breast
[3] = test system: SF-268 CNS
[4] = test system: SK-MEL-2 melanoma
[5] = test system: OVCAR-3 ovarian
[6] = test system: HOP-62 NSCLC
[7] = test system: HCT-15 colon
[8] = test system: MOLT-4 leukemia
[9] = test system: BT-549 breast
[10] = test system: MCF7 breast

SMILES: COC(=O)C(C)NP(=O)(OCc1ccc(Cn2cnc3c(=O)[nH]c(N)nc32)cc1)Oc1ccccc1 (stereo not given)
- GI50 [1]: > 100 µM
- TGI [1]: > 100 µM
- GI50 [2]: > 100 µM
- TGI [2]: > 100 µM
- GI50 [3]: > 100 µM
- TGI [3]: > 100 µM
- GI50 [4]: > 100 µM
- TGI [4]: > 100 µM
- GI50 [5]: > 100 µM
- TGI [5]: > 100 µM
- GI50 [6]: > 100 µM
- TGI [6]: > 100 µM
- GI50 [7]: > 100 µM
- TGI [7]: > 100 µM
- GI50 [8]: > 100 µM
- TGI [8]: > 100 µM
- GI50 [9]: > 100 µM
- TGI [9]: > 100 µM
- GI50 [10]: > 100 µM
- TGI [10]: > 100 µM

SMILES: NC1=C(Cl)C(=O)c2ccc(S(N)(=O)=O)cc2C1=O
- GI50 [1]: 0.82 µM
- TGI [1]: 2.28 µM
- GI50 [2]: 0.332 µM
- TGI [2]: 2.7 µM
- GI50 [3]: 0.372 µM
- TGI [3]: 1.22 µM
- GI50 [4]: 0.192 µM
- TGI [4]: 0.487 µM
- GI50 [5]: 0.198 µM
- TGI [5]: 0.454 µM
- GI50 [6]: 0.251 µM
- TGI [6]: 0.596 µM
- GI50 [7]: 0.164 µM
- TGI [7]: 0.339 µM
- GI50 [8]: 0.515 µM
- TGI [8]: 3.22 µM
- GI50 [9]: 0.171 µM
- TGI [9]: 0.314 µM
- GI50 [10]: 0.15 µM
- TGI [10]: 0.346 µM

SMILES: O=[N+]([O-])c1cc(CCl)ccc1CCl
- TGI [1]: 2.76 µM
- TGI [2]: 4.5 µM
- TGI [3]: 4.21 µM
- TGI [4]: 7.83 µM
- TGI [5]: 3.27 µM
- TGI [6]: 2.93 µM
- TGI [7]: 3.64 µM
- TGI [8]: 12.6 µM
- TGI [9]: 11.1 µM
- TGI [10]: 3.28 µM

SMILES: COc1ccc(-c2cnc3ccnn3c2-c2cc(OC)c(OC)c(OC)c2)cc1
- GI50 [2]: 4.3 µM
- TGI [2]: 65.7 µM
- GI50 [3]: 5.86 µM
- TGI [3]: > 100 µM
- GI50 [4]: 3.94 µM
- TGI [4]: > 100 µM
- GI50 [5]: 2.51 µM
- TGI [5]: 7.91 µM
- GI50 [6]: 7.49 µM
- TGI [6]: > 100 µM
- GI50 [7]: 2.12 µM
- TGI [7]: > 100 µM
- GI50 [8]: 4.62 µM
- TGI [8]: > 100 µM
- GI50 [9]: 12.2 µM
- TGI [9]: 95.4 µM
- GI50 [10]: 3.51 µM
- TGI [10]: > 100 µM

SMILES: S=c1nc2[nH]ncc2c(N/N=C/c2ccccc2)[nH]1
- GI50 [1]: 31.9 µM
- TGI [1]: > 100 µM
- GI50 [2]: 19.8 µM
- TGI [2]: 71.4 µM
- GI50 [3]: > 100 µM
- TGI [3]: > 100 µM
- GI50 [4]: > 100 µM
- TGI [4]: > 100 µM
- GI50 [5]: 48.5 µM
- TGI [5]: > 100 µM
- GI50 [6]: > 100 µM
- TGI [6]: > 100 µM
- GI50 [7]: 81.3 µM
- TGI [7]: > 100 µM
- GI50 [8]: > 100 µM
- TGI [8]: > 100 µM
- GI50 [9]: > 100 µM
- TGI [9]: > 100 µM
- GI50 [10]: 32 µM
- TGI [10]: 47 µM

SMILES: CC(=O)O[C@H]1C(=O)O[C@@H]2C[C@H]3C(C)=CC(=O)[C@@H](O)[C@]3(C)[C@H]3[C@@]4(O)OC[C@]32[C@@H]1[C@@H](C)[C@H]4O
- GI50 [1]: 0.0752 µM
- TGI [1]: 2.36 µM and 2.13 µM
- TGI [2]: 0.399 µM
- GI50 [3]: 0.0173 µM
- TGI [3]: 0.0585 µM and 0.184 µM
- GI50 [4]: 0.0283 µM
- TGI [4]: 0.197 µM and 0.259 µM
- GI50 [5]: 0.0134 µM
- TGI [5]: 0.172 µM and 0.12 µM
- GI50 [6]: < 0.0122 µM
- TGI [6]: 0.07 µM and 0.314 µM
- GI50 [7]: 0.0399 µM
- TGI [7]: 0.738 µM and 1.03 µM
- GI50 [8]: < 0.01 µM
- TGI [9]: 0.513 µM
- GI50 [10]: < 0.01 µM
- TGI [10]: 0.0593 µM and 0.0543 µM

SMILES: NC(CNO)C(=O)O (stereo not given)
- TGI [1]: > 100 µM
- TGI [2]: > 100 µM
- TGI [3]: > 100 µM
- TGI [4]: > 100 µM
- TGI [5]: > 100 µM
- TGI [6]: > 100 µM
- TGI [7]: > 100 µM
- TGI [9]: > 100 µM
- TGI [10]: > 100 µM

SMILES: O=C(Nc1ccccc1)Nc1cccc(-n2cc(-c3ccncc3)c(-c3ccc(O)c(Cl)c3)n2)c1
- GI50 [1]: 2.92 µM
- TGI [1]: 14.3 µM
- GI50 [2]: 1.98 µM
- TGI [2]: 5.23 µM
- GI50 [3]: 5.73 µM
- TGI [3]: 68.8 µM
- GI50 [4]: 2.49 µM
- TGI [4]: 5.63 µM
- GI50 [6]: 4.93 µM
- TGI [6]: 53.6 µM
- GI50 [7]: 2.84 µM
- TGI [7]: > 100 µM
- GI50 [8]: 2.92 µM
- TGI [8]: 9.03 µM
- GI50 [9]: 3.29 µM
- TGI [9]: 12.7 µM
- GI50 [10]: 2.75 µM
- TGI [10]: 17.8 µM

SMILES: c1cc(OCCN2CCCCCC2)ccc1CNc1ccc2nc(CCC3CCCCC3)[nH]c2c1
- GI50 [1]: 1.98 µM
- TGI [1]: 4.05 µM
- GI50 [2]: 1.56 µM
- TGI [2]: 2.97 µM
- GI50 [3]: 2.42 µM
- TGI [3]: 9.2 µM
- GI50 [4]: 1.88 µM
- TGI [4]: 3.63 µM
- GI50 [5]: 1.89 µM
- TGI [5]: 4.25 µM
- GI50 [6]: 1.85 µM
- TGI [6]: 3.81 µM
- GI50 [7]: 1.59 µM
- TGI [7]: 3.67 µM
- GI50 [8]: 1.69 µM
- TGI [8]: 6.74 µM
- GI50 [9]: 1.83 µM
- TGI [9]: 5.54 µM
- GI50 [10]: 1.72 µM
- TGI [10]: 4.12 µM

SMILES: Cn1ncc2c(/N=C/c3cccs3)[nH]c(=S)nc21
- GI50 [1]: 33.4 µM
- TGI [1]: > 100 µM
- GI50 [2]: 20.3 µM
- TGI [2]: > 67.5 µM
- GI50 [3]: 26.2 µM
- TGI [3]: > 94.6 µM
- GI50 [4]: > 64.5 µM
- TGI [4]: > 100 µM
- GI50 [5]: 29.2 µM
- TGI [5]: > 76.7 µM
- GI50 [6]: 52.9 µM
- TGI [6]: > 93.8 µM
- GI50 [7]: 42.4 µM
- TGI [7]: > 100 µM
- GI50 [8]: 44.1 µM
- TGI [8]: > 100 µM
- GI50 [9]: 33.2 µM
- TGI [9]: > 91.3 µM
- GI50 [10]: 27.4 µM
- TGI [10]: > 80.3 µM

SMILES: Cn1cccc1-c1cc(-c2cccs2)[nH]c(=O)c1C#N
- GI50 [1]: > 100 µM
- TGI [1]: > 100 µM
- GI50 [2]: > 100 µM
- TGI [2]: > 100 µM
- GI50 [3]: 20.6 µM
- TGI [3]: > 100 µM
- GI50 [4]: > 100 µM
- TGI [4]: > 100 µM
- GI50 [5]: > 100 µM
- TGI [5]: > 100 µM
- GI50 [6]: 83.9 µM
- TGI [6]: > 100 µM
- GI50 [7]: > 100 µM
- TGI [7]: > 100 µM
- GI50 [8]: > 100 µM
- TGI [8]: > 100 µM
- GI50 [9]: > 100 µM
- TGI [9]: > 100 µM
- GI50 [10]: > 100 µM
- TGI [10]: > 100 µM

SMILES: COc1ccc(/C=C2\CN(Cc3cn(CCCNc4ccnc5cc(Cl)ccc45)nn3)C/C(=C\c3ccc(OC)c(OC)c3)C2=O)cc1OC
- GI50 [2]: 1.7 µM
- TGI [2]: 3.48 µM
- GI50 [3]: 0.743 µM
- TGI [3]: 3.09 µM
- GI50 [4]: 2.32 µM
- TGI [4]: 6.84 µM
- GI50 [5]: 0.463 µM
- TGI [5]: 1.68 µM
- GI50 [6]: 2.42 µM
- TGI [6]: 4.54 µM
- GI50 [7]: 2.03 µM
- TGI [7]: 5.02 µM
- GI50 [8]: 1.39 µM
- TGI [8]: 6.27 µM
- GI50 [9]: 1.81 µM
- TGI [9]: 3.79 µM
- GI50 [10]: 0.503 µM
- TGI [10]: 2.45 µM

SMILES: CN[C@]12CC3(C=CC(=O)C=C3)O[C@@]1(Cc1ccc(OC)cc1)N(C)C(=O)N2
- GI50 [1]: 2.69 µM
- TGI [1]: 10.2 µM
- GI50 [2]: 4.2 µM
- TGI [2]: 15.1 µM
- GI50 [3]: 2.85 µM
- TGI [3]: 9.82 µM
- GI50 [4]: 2.96 µM
- TGI [4]: 10.9 µM
- GI50 [5]: 0.793 µM
- TGI [5]: 4.14 µM
- GI50 [6]: 2.48 µM
- TGI [6]: 11.2 µM
- GI50 [7]: 1.64 µM
- TGI [7]: 10.3 µM
- GI50 [8]: 2.8 µM
- TGI [8]: 9.88 µM
- GI50 [9]: 1.52 µM
- TGI [9]: 4.22 µM
- GI50 [10]: 0.778 µM
- TGI [10]: 15.1 µM
